Source: ChEMBL document CHEMBL1921757, “Small molecule probes of the receptor binding site in the Vibrio cholerae CAI-1 quorum sensing circuit” (Bioorg Med Chem, 2011)

Assays:
[1] = biological target: T1, CAI-1 autoinducer sensor kinase/phosphatase CqsS (Vibrio cholerae serotype O1 (strain ATCC 39315 / El Tor Inaba N16961)) (UniProt Q9KM66); test: Agonist activity at CqsS receptor in cqsA-deficient, luxQ-deficient Vibrio cholerae MM920 harboring cosmid pBB1 carrying Vibrio harveyi luxCDABE gene assessed as maximal quorum sensing regulated bioluminescence at 50 uM after 4 hrs by scintillation counting relative to (S)-CAI-1; assay type: functional
T1 sequence (whole entry): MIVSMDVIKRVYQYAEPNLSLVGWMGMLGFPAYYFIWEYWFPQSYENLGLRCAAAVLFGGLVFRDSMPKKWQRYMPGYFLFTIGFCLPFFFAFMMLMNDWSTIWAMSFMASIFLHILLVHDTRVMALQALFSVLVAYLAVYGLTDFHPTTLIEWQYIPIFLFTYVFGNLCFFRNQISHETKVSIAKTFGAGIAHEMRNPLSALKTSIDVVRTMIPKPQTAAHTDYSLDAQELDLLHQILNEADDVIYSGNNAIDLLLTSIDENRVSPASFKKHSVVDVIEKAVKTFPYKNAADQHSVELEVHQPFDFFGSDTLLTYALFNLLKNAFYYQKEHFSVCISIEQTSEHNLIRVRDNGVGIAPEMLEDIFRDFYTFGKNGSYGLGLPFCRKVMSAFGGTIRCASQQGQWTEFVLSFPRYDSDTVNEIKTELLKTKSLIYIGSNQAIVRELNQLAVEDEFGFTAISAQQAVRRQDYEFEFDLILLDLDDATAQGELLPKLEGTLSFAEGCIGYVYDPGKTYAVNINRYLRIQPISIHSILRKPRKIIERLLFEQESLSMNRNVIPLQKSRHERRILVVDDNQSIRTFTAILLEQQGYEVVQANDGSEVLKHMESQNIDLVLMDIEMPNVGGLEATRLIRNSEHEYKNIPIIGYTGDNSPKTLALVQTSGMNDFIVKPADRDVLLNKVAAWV

[2] = tested on: Vibrio cholerae; test: Antibacterial activity against Vibrio cholerae MM920 assessed as growth inhibition after 4 hrs by spectrophotometry; assay type: organism-based; conditions: in vivo
[3] = biological target: T2, CAI-1 autoinducer sensor kinase/phosphatase CqsS (Vibrio cholerae serotype O1 (strain ATCC 39315 / El Tor Inaba N16961), UniProt Q9KM66); test: Agonist activity at CqsS receptor in cqsA-deficient, luxQ-deficient Vibrio cholerae MM920 harboring cosmid pBB1 carrying Vibrio harveyi luxCDABE gene assessed as induction of quorum sensing regulated bioluminescence after 4 hrs by scintillation counting; assay type: functional
T2 sequence (Q9KM66 whole entry): T1 sequence (whole entry)

[4] = biological target: T1, CAI-1 autoinducer sensor kinase/phosphatase CqsS (Vibrio cholerae serotype O1 (strain ATCC 39315 / El Tor Inaba N16961)); test: Ratio of compound EC50 to (S)-CAI-1 EC50 for CqsS receptor in cqsA-deficient, luxQ-deficient Vibrio cholerae MM920 harboring cosmid pBB1 carrying Vibrio harveyi luxCDABE gene assessed as induction of quorum sensing regulated bioluminescence after 4 hrs by scintillation counting
[5] = biological target: T1, CAI-1 autoinducer sensor kinase/phosphatase CqsS (Vibrio cholerae serotype O1 (strain ATCC 39315 / El Tor Inaba N16961)); test: Agonist activity at CqsS receptor in cqsA-deficient, luxQ-deficient Vibrio cholerae MM920 harboring cosmid pBB1 carrying Vibrio harveyi luxCDABE gene assessed as quorum sensing regulated bioluminescence after 4 hrs by scintillation counting relative to (S)-CAI-1; assay type: functional
[6] = biological target: T1, CAI-1 autoinducer sensor kinase/phosphatase CqsS (Vibrio cholerae serotype O1 (strain ATCC 39315 / El Tor Inaba N16961)); test: Antagonist activity at CqsS receptor in Vibrio cholerae MM920 assessed as inhibition of quorum sensing regulated CAI-1 induced bioluminescence after 4 hrs by scintillation counting relative to Ph-CAI-1; assay type: functional
[7] = biological target: T2, CAI-1 autoinducer sensor kinase/phosphatase CqsS; test: Antagonist activity at CqsS receptor in Vibrio cholerae MM920 assessed as inhibition of quorum sensing regulated CAI-1 induced bioluminescence after 4 hrs by scintillation counting; assay type: functional
[8] = biological target: T1, CAI-1 autoinducer sensor kinase/phosphatase CqsS (Vibrio cholerae serotype O1 (strain ATCC 39315 / El Tor Inaba N16961)); test: Ratio of compound IC50 to Ph-CAI-1 IC50 for CqsS receptor in Vibrio cholerae MM920 assessed as inhibition of quorum sensing regulated CAI-1 induced bioluminescence after 4 hrs by scintillation counting

| SMILES | Emax [1] | growth inhibition (GI) [2] | EC50 [3] | Ratio EC50 [4] | Emax [5] | Imax [6] | IC50 [7] | Ratio IC50 [8] |
| --- | --- | --- | --- | --- | --- | --- | --- | --- |
| CCCCCC(=O)[C@@H](O)CC | 27% | Not Active | > 50 µM | > 200 |  |  |  |  |
| CCCCCCC(=O)[C@@H](O)CC | 59% | Not Active | > 50 µM | > 200 |  |  |  |  |
| CCCCCCCC(=O)[C@@H](O)CC |  | Not Active |  |  |  |  |  |  |
| CCCCCCCC(=O)[C@H](O)CC |  | Not Active |  |  |  |  |  |  |
| CCCCCCCCC(=O)[C@@H](O)CC |  | Not Active | 1.1 µM | 4.6 | 100% |  |  |  |
| CCCCCCCCC(=O)[C@H](O)CC |  | Not Active | 1.61 µM | 6.7 | 95% |  |  |  |
| CCCCCCCCCC(=O)[C@@H](O)CC |  | Not Active |  |  |  |  |  |  |
| CCCCCCCCCC(=O)[C@H](O)CC |  | Not Active |  |  |  |  |  |  |
| CCCCCCCCCCC(=O)[C@@H](O)CC |  | Not Active | 2.09 µM | 8.4 | 98% |  |  |  |
| CCCCCCCCCCCCC(=O)[C@@H](O)CC | 45% | Not Active | > 50 µM | > 200 |  |  |  |  |
| CCCCCCCCCC(=O)C(=O)CC |  | Not Active | 3.2 µM | 14 | 92% |  |  |  |
| CCCCCCCCCC(O)C(=O)CC (configuration not stated) |  | Not Active |  | 84 | 38% |  |  |  |
| CCCCCCCCCC(O)CCC (configuration not stated) |  | Not Active | > 50 µM | > 200 |  |  |  |  |
| CCCCCCCCCC(=O)CCC |  | Not Active | > 50 µM | > 200 |  |  |  |  |
| CCCCCCCCCCC(O)CC (configuration not stated) |  | Not Active | > 50 µM | > 200 |  |  |  |  |
| CCCCCCCCCCC(=O)CC |  | Not Active | > 50 µM | > 200 |  |  |  |  |
| CCCCCCCCCC(=O)C(Cl)CC (configuration not stated) |  | Not Active | > 50 µM | > 200 | 24% |  |  |  |
| CCCCCCCCCC(=O)C(Br)CC (configuration not stated) |  | Not Active | 2.4 µM | 13 | 73% |  |  |  |
| CCCCCCCCCC(=O)C(S)CC (configuration not stated) |  | Not Active | 1.6 µM | 8.6 | 67% |  |  |  |
| CCCCCCCCCC(=O)C(N)CC.Cl (configuration not stated) |  | Not Active | 0.21 µM | 0.27 | 105% |  |  |  |
| CCCCCCCCCC(=O)[C@H](C)O |  | Not Active | 0.34 µM | 2.6 | 96% |  |  |  |
| CCCCCCCCCC(O)C(O)CC (mixture of isomers) |  | Not Active | 4.3 µM | 18 | 83% |  |  |  |
| CCCCCCCCCC(=O)C(O)CCC (racemic) |  | Not Active | 0.78 µM | 6 | 84% |  |  |  |
| CCCCCCCCCC(=O)C(O)C(C)C (racemic) |  | Not Active | 7.16 µM | 21 | 71% |  |  |  |
| CCCCCCCCCC(=O)C(O)C(C)(C)C (racemic) |  | Not Active | > 50 µM | > 200 |  |  |  |  |

| SMILES | Emax [1] | growth inhibition (GI) [2] | EC50 [3] | Ratio EC50 [4] | Emax [5] | Imax [6] | IC50 [7] | Ratio IC50 [8] |
| --- | --- | --- | --- | --- | --- | --- | --- | --- |
| CCCCCCCCCC(=O)C(O)c1ccccc1 (racemic) |  | Not Active |  |  |  | 100% | 55 µM | 1 |
| CCCCCCCCCC(=O)C(O)c1ccccc1C (racemic) |  | Not Active |  |  |  |  | > 500 µM | > 9 |
| CCCCCCCCCC(=O)C(O)c1cccc(C)c1 (racemic) |  | Not Active |  |  |  | 58% | 46 µM | 0.91 |
| CCCCCCCCCC(=O)C(O)c1ccc(C)cc1 (racemic) |  | Not Active |  |  |  | 99% | 114 µM | 2.2 |
| CCCCCCCCCC(=O)C(O)c1ccc(C)c(C)c1 (racemic) |  | Not Active |  |  |  |  | > 500 µM | > 9 |
| CCCCCCCCCC(=O)C(O)c1ccccc1O (racemic) |  | Not Active |  |  |  | 144% | 172 µM | 3.4 |
| CCCCCCCCCC(=O)C(O)c1cccc(O)c1 (racemic) |  | Not Active |  |  |  | 123% | 36 µM | 0.71 |
| CCCCCCCCCC(=O)C(O)c1ccc(O)cc1 (racemic) |  | Not Active |  |  |  | 119% | 78 µM | 1.5 |
| CCCCCCCCCC(=O)C(O)c1ccc(O)c(O)c1 (racemic) |  | Not Active |  |  |  | 122% | 174 µM | 3.4 |
| CCCCCCCCCC(=O)C(O)c1ccccc1OC (racemic) |  | Not Active |  |  |  |  | > 500 µM | > 9 |
| CCCCCCCCCC(=O)C(O)c1cccc(OC)c1 (racemic) |  | Not Active |  |  |  |  | > 500 µM | > 9 |
| CCCCCCCCCC(=O)C(O)c1ccc(OC)cc1 (racemic) |  | Not Active |  |  |  |  | > 500 µM | > 9 |
| CCCCCCCCCC(=O)C(O)c1ccccc1F (racemic) |  | Not Active |  |  |  | 105% | 74 µM | 1.5 |
| CCCCCCCCCC(=O)C(O)c1cccc(F)c1 (racemic) |  | Not Active |  |  |  | 112% | 178 µM | 3.5 |
| CCCCCCCCCC(=O)C(O)c1ccc(F)cc1 (racemic) |  | Not Active |  |  |  | 125% | 137 µM | 2.7 |
| CCCCCCCCCC(=O)C(O)c1cc(F)ccc1F (racemic) |  | Not Active |  |  |  | 48% | 68 µM | 1.3 |
| CCCCCCCCCC(=O)C(O)c1ccccc1Cl (racemic) |  | Not Active |  |  |  |  | > 500 µM | > 9 |
| CCCCCCCCCC(=O)C(O)c1cccc(Cl)c1 (racemic) |  | Not Active |  |  |  |  | > 500 µM | > 9 |
| CCCCCCCCCC(=O)C(O)c1ccc(Cl)cc1 (racemic) |  | Not Active |  |  |  |  | > 500 µM | > 9 |
| CCCCCCCCCC(=O)C(O)c1ccccc1Br (racemic) |  | Not Active |  |  |  |  | > 500 µM | > 9 |
| CCCCCCCCCC(=O)C(O)c1cccc(Br)c1 (racemic) |  | Not Active |  |  |  |  | > 500 µM | > 9 |
| CCCCCCCCCC(=O)C(O)c1ccc(Br)cc1 (racemic) |  | Not Active |  |  |  | 71% | 185 µM | 2.6 |
| CCCCCCCCCC(=O)C(O)Cc1ccccc1 (racemic) |  | Not Active |  |  |  | 124% | 136 µM | 1.9 |
| CCCCCCCCCC(=O)C(N)c1ccccc1.Cl (racemic) |  | Not Active |  |  |  |  | > 500 µM | > 9 |
